# Assays:
# Aqueous solubility = format: physicochemical
# Text: Table 5 presents the results.
# [1] = Solvent properties (density, boiling point, flash point, freezing point, viscosity); format: physicochemical
# Text: Isopropyl 2-hydroxy-4-(methylsulfinyl)butanoate (also called iC3SO) has the following properties.
# Green or regular hard surface cleaner or degreaser formulations containing commercial surfactants or a mixture (i.e., monomers, dimers, and short oligomers) of octyl 2-hydroxy-4-(methylsulfinyl)butanoate (also called “C8SO”) were formulated, as shown in Table 2 below. The density of C8SO is 1.08 g/mL.
# [2] = in water at 25° C. and atmospheric pressure
Solubility (wt/wt total) (Aqueous solubility; [2]) [wt %],"Solubility (wt/wt total) (Aqueous solubility; in water, marked *Theoretical) [% wt %]",Structure (SMILES),also measured
<0.1,,CCCCCCCCCCOC(=O)C(O)CCS(C)(=O)=O (centres unmarked) [Decyl 2-Hydroxy-4-(Methylsulfonyl)Butanoate],
>50.0,,CCCCCCOC(=O)C(O)CC[S+](C)[O-] (centres unmarked) [Hexyl 2-Hydroxy-4-(Methylsulfinyl)Butanoate],
>50.0,,CCCCCCCCOC(=O)C(O)CC[S+](C)[O-] (centres unmarked) [Octyl 2-Hydroxy-4-(Methylsulfinyl)Butanoate],

# More lines, now with the values behind:
Structure (SMILES),Solubility (wt/wt total) (Aqueous solubility; [2]) [wt %],"Solubility (wt/wt total) (Aqueous solubility; in water, marked *Theoretical) [% wt %]",also measured
CCCCCCCCNC(=O)C(O)CC[S+](C)[O-] (centres unmarked) [2-Hydroxy-4-(Methylsulfinyl)-N-Octylbutanamide],>50.0,,
CCCCOC(=O)C(O)CC[S+](C)[O-] (centres unmarked) [Butyl 2-Hydroxy-4-(Methylsulfinyl)Butanoate],,>50,
"CCCCOC(=O)C(O)CCSC (centres unmarked) [Butyl 2-hydroxy-4-(methylthio)butanoate, Butyl 2-Hydroxy-4-(Methylthio)Butanoate]",0.9,,
CSCCC(O)C(=O)OC(C)C (centres unmarked) [Isopropyl 2-hydroxy-4-(methylthio)butanoate],2.5,,
COC(=O)C(O)CC[S+](C)[O-] (centres unmarked) [Methyl 2-Hydroxy-4-(Methylsulfinyl)Butanoate],,>50,
"CC(C)OC(=O)C(O)CC[S+](C)[O-] (centres unmarked) [iC3SO, Isopropyl 2-hydroxy-4-(methylsulfinyl)butanoate]",,>50,Boiling Point [1]: 248° ° C.; Density [1]: 1.17 g/mL; Flash Point [1]: 194° ° C.; Freezing Point [1]: <−90° ° C.; Viscosity [1]: 519 cps

# Source: patent US10227551B2, “Sulfur-containing compounds as solvents” (Novus International, Inc., priority 2015, dated 2019)
